{"source": "paper PMC4900597", "about": "“Evaluation of the Effects of Pasireotide LAR Administration on Lymphocele Prevention after Axillary Node Dissection for Breast Cancer: Results of a Randomized Non-Comparative Phase 2 Study” (PLoS ONE, 2016)", "key": {"[1]": {"system": "female patients undergoing mastectomy with axillary lymph node dissection for breast cancer", "test": "Phase 2 trial, secondary endpoints: post-operative course (drainage, aspirations, healing, hospital stay)", "type": "in vivo, human"}, "[2]": {"system": "female patients undergoing mastectomy with axillary lymph node dissection for breast cancer", "test": "Phase 2 trial, safety / adverse events", "type": "in vivo, human", "settings": "treatment group; patient with insulin-dependent diabetes hospitalised for hyperglycaemia", "procedure": "The screening was performed during the pre-surgical visit. At the baseline visit (V1) 7 to 10 days prior to surgery, patients signed the informed consent, and pasireotide or the placebo were injected. In addition, a blood sample for pharmacokinetic monitoring was taken. On the day of surgery or the day after surgery (V2), data concerning the operation (type of surgery, duration, intraoperative complications, type and number of drains) and recording of adverse events were performed. On the day of discharge (V3), the summary of the daily collection of postoperative data was completed (daily and total drainage volumes, dates on which drains were removed and overall duration of drainage, postoperative complications, whether aspiration of a symptomatic lymphocele was required, length of hospital stay and recording of adverse events).\nA second blood sample for pharmacokinetic monitoring was taken during this visit.\nFollow-up visits at 2 months (V6) allowed the recording of late adverse events."}, "sst1": {"system": "sst1", "settings": "ref [14]; cited from earlier work", "text": "(§1) The five somatostatin receptors (sst 1 to 5) are expressed in various organs under normal physiological conditions. Somatostatin analogs activate these receptors, which in turn reduce cell activity and inhibit hormone synthesis. Octreotide and lanreotide, which are currently used, have strong affinities for the sst2 receptor and moderate affinities, if any, for the other receptor types."}, "sst3": {"system": "sst3", "parameters": "method as in PMID 11980628", "settings": "ref [14]; cited from earlier work", "text": "as §1"}, "sst5": {"system": "sst5", "parameters": "method as in PMID 11980628", "settings": "ref [14]; cited from earlier work", "text": "as §1"}, "sst4": {"system": "sst4", "parameters": "method as in PMID 11980628", "settings": "ref [14]; cited from earlier work", "text": "as §1, with “Pasireotide is an injectable somatostatin analog. […] The” for “The”"}, "[3]": {"settings": "cited from earlier work", "procedure": "Differences between the results reported by Carcoforo [10] and Mahmoud and our results could be partially explained. First, the clinical practices were different. In our practice, drains were removed before the seventh post-operative day, whereas in the studies by Carcoforo [10] and Mahmoud^11 the mean duration of drainage was between 7 and 25 days. Second, the other authors both used octreotide 0.1 mg three times a day subcutaneously for 5 [10] or 7 [11] days, starting on the first postoperative day. In our study, we chose a long-acting release formulation of pasireotide (pasir ... || The gradual release form must be injected intramuscularly prior to surgery. An effective plateau concentration is obtained after 10 days regardless of the selected dosage (20, 40, or 60 mg) (3)."}, "[4]": {"system": "female patients undergoing mastectomy with axillary lymph node dissection for breast cancer", "test": "Phase 2 randomised trial, primary outcome: absence of post-operative axillary symptomatic lymphocele", "settings": "versus placebo group", "experimental": "All female patients for whom mastectomy and ALND were indicated were eligible for the study, including patients who had received neo-adjuvant chemotherapy. Main exclusion criteria were related to diabetes, cardiac insufficiency, disorder of cardiac conduction or hepatic failure. […] This choice of these variables was decided because they could influence the rate of post-operative lymphocele and so created bias. Randomization was carried out by the Statistics Team at Hôpital Saint Louis in charge of the project (only one randomization list for both centers). […]\nThe postoperative visit was 28 ± 4 days following surgery (V5), and a routine lymphocele aspiration was warranted and considered positive if the aspirated volume exceeded 120 cc. Again, data on the number of repeated lymphocele aspirations and the volume were collected, and adverse events were recorded.\nThe primary motivation for this sequential Bayesian strategy were: (1) the uncertainty about the effect of the procedure, (2) the small sample and (3) it allows continuous monitoring of outcomes throughout the trial. […] Additionally, based on the subsequent distribution experimental group, early stopping criteria were calculated to allow early termination of the trial for inefficacy if there was substantial evidence that the estimated response rate was unacceptably low compared to the expected minimal response rate of 60%. […]"}, "sst2": {"system": "sst2", "parameters": "method as in 2 sources, ref [14] = [14]; PMID 11980628; doi:10.1530/eje.0.1460707; 14 Bruns C , Lewis I , Briner U , Meno-Tetang G , Weckbecker G . SOM230: a novel somatostatin peptidomimetic with broad somatotropin release inhibiting factor (SRIF) receptor binding and a unique anti ||| ref [14] (a number printed in a supplementary file, which may have a reference list of its own: not looked up in the article's list)", "settings": "ref [14]; cited from earlier work", "text": "The five somatostatin receptors (sst 1 to 5) are expressed in various organs under normal physiological conditions. Somatostatin analogs activate these receptors, which in turn reduce cell activity and inhibit hormone synthesis. Octreotide and lanreotide, which are currently used, have strong affinities for the sst2 receptor and moderate affinities, if any, for the other receptor types. […] Like natural somatostatin and known analogs, its pharmaceutical efficacy depends on its binding to somatostatin receptors. There are five of these (sst 1 to 5); they are expressed in various bodily tissues under normal physiological conditions. Somatostatin analogs activate these receptors, which in turn reduce cell activity and inhibits hormone synthesis. (7). Octreotide and lanreotide, which are currently used, have a strong affinity for the sst2 receptor and moderate affinity, if any, for the other types."}, "[5]": {"system": "patients after axillary node dissection in breast cancer", "parameters": "method as in PMID 12648685", "settings": "p = 0.0001, ref [10], cited from earlier work"}, "[6]": {"system": "patients after axillary node dissection in breast cancer", "parameters": "method as in PMID 17214811", "settings": "p = 0.0001, ref [11], cited from earlier work"}, "[7]": {"system": "renal transplantation patients", "parameters": "method as in PMID 16757259", "settings": "patients treated with octreotide; ref [22]; cited from earlier work"}, "[8]": {"system": "women with breast cancer undergoing ALND", "settings": "compared to placebo, p = 0.035; ref [12]; cited from earlier work", "procedure": "More recently, Gauthier et al. have reported the results of a phase 3, double-blind, randomized study using Lanreotide Autogel 90 mg LAR to reduce lymphorrhea volumes in the axillary drain during the first 4 postoperative days."}, "[9]": {"settings": "pasireotide LAR 40 and 60 mg, ref [21]"}}, "note": "Starred links: 1 amine or outer side, 2 acyl side, 3 side chain; linkers in the order of their positions; H or OH if unused. Non-standard residues stand in square brackets, D forms with d. Residues, ends and D or L forms follow the SMILES beside them. Groups on a side chain read outwards from the residue. *: point of attachment. Ethylenediamine = C(CN[*:2])N[*:1]; Hyp = O=C(O)[C@@H]1C[C@@H](O)CN1; Phg = N[C@H](C(=O)O)c1ccccc1; CO = O=C([*:1])[*:2]; Bn = c1ccc(C*)cc1"}
{"compound": "NCCCC[C@@H]1NC(=O)[C@@H](Cc2c[nH]c3ccccc23)NC(=O)[C@H](c2ccccc2)NC(=O)[C@@H]2C[C@@H](OC(=O)NCCN)CN2C(=O)[C@H](Cc2ccccc2)NC(=O)[C@H](Cc2ccc(OCc3ccccc3)cc2)NC1=O", "note": "[Pasireotide] (cyclo([Hyp]([CO-Ethylenediamine])[Phg][dW]KY(Bn)F))", "values": [{"measurement": "Daily flow axillary drain", "setting": "[1]; Fig 3, Day 1", "result": 50, "unit": "mL"}, {"measurement": "Daily flow mastectomy drain", "setting": "[1]; Fig 3, Day 1", "result": "52,5 ml"}, {"measurement": "Daily flow axillary drain", "setting": "[1]; Fig 3, Day 2", "result": 50, "unit": "mL"}, {"measurement": "Daily flow mastectomy drain", "setting": "[1]; Fig 3, Day 2", "result": 40, "unit": "mL"}, {"measurement": "Daily flow axillary drain", "setting": "[1]; Fig 3, Day 3", "result": 65, "unit": "mL"}, {"measurement": "Daily flow mastectomy drain", "setting": "[1]; Fig 3, Day 3", "result": 38, "unit": "mL"}, {"measurement": "Daily flow axillary drain", "setting": "[1]; Fig 3, Day 4", "result": 50, "unit": "mL"}, {"measurement": "Daily flow mastectomy drain", "setting": "[1]; Fig 3, Day 4", "result": 40, "unit": "mL"}, {"measurement": "Daily flow axillary drain", "setting": "[1]; Fig 3, Day 5", "result": 75, "unit": "mL"}, {"measurement": "Daily flow mastectomy drain", "setting": "[1]; Fig 3, Day 5", "result": 41, "unit": "mL"}, {"measurement": "Daily flow axillary drain", "setting": "[1]; Fig 3, Day 6", "result": 50, "unit": "mL"}, {"measurement": "Daily flow mastectomy drain", "setting": "[1]; Fig 3, Day 6", "result": 40, "unit": "mL"}, {"measurement": "Daily flow axillary drain", "setting": "[1]; Fig 3, Day 7", "result": 35, "unit": "mL"}, {"measurement": "Daily flow mastectomy drain", "setting": "[1]; Fig 3, Day 7", "result": 30, "unit": "mL"}, {"measurement": "Length of time to onset of adjuvant chemotherapy", "setting": "[1]; median [IQR]", "result": "54 [37.5,60] days"}, {"measurement": "Repeated lymphocele aspirations, total volume", "setting": "[1]; median [IQR]", "result": "270 [135,415] ml"}, {"measurement": "Duration of drainage, axillary drain", "setting": "[1]; median [IQR], n = 42", "result": "3 [2,5] days"}, {"measurement": "Duration of drainage, mastectomy drain", "setting": "[1]; median [IQR], n = 42", "result": "2.5 [1.75,4] days"}, {"measurement": "Length of the hospital stay", "setting": "[1]; median [IQR], n = 42", "result": "5 [4,6] days"}, {"measurement": "Total flow, axillary drain", "setting": "[1]; median [IQR], n = 42", "result": "165 [81,400.2] ml"}, {"measurement": "Total flow, mastectomy drain", "setting": "[1]; median [IQR], n = 42", "result": "132.5 [55.5,226] ml"}, {"measurement": "Patients who underwent systematic lymphocele aspiration on day 28", "setting": "[1]; treatment group", "result": "Twelve"}, {"measurement": "Serious adverse events", "setting": "[2]", "result": "one"}, {"measurement": "Affinity for sst1 relative to octreotide", "setting": "sst1", "result": 30, "unit": "times greater"}, {"measurement": "Affinity for sst3 relative to octreotide", "setting": "sst3", "result": 5, "unit": "times greater"}, {"measurement": "Affinity for sst5 relative to octreotide", "setting": "sst5", "result": 40, "unit": "times greater"}, {"measurement": "Affinity for sst4", "setting": "sst4", "result": "none"}, {"measurement": "Time to effective plateau concentration", "setting": "[3]; gradual release form i.m., regardless of dosage (20, 40, or 60 mg), ref (3) Schmid et al AACE 2005", "result": 10, "unit": "days"}, {"measurement": "Time of first concentration peak after administration", "setting": "[3]; [9]", "result": 1, "unit": "days"}, {"measurement": "Time of second slow-release peak with maximum concentrations", "setting": "[3]; [9]", "result": "~20", "unit": "days"}, {"measurement": "Day from which the effect was obtained after injection", "setting": "[3]; pasireotide LAR, ref [21]", "result": "seventh"}, {"measurement": "Duration for which the effect remained", "setting": "[3]; pasireotide LAR, ref [21]", "result": "up to 30 days"}, {"measurement": "Residual concentration at day 28", "setting": "[3]; patients with neuroendocrine tumors, ref [23]", "result": 16.5, "unit": "ng/mL"}, {"measurement": "Decrease in symptomatic lymphocele development in treated patients", "setting": "[4]", "result": 12.2, "unit": "%"}]}
{"compound": "Octreotide", "values": [{"measurement": "Affinity for the sst2 receptor, in words", "setting": "sst2", "result": "strong"}, {"measurement": "Affinity for sst4", "setting": "sst4", "result": "none"}, {"measurement": "Daily drainage volume", "setting": "[5]; subcutaneous octreotide in immediate postoperative period, untreated group 94.6 ml", "result": 65.4, "unit": "mL"}, {"measurement": "Time of drain removal after surgery", "setting": "[5]; untreated group 16.7 days", "result": 7.1, "unit": "days"}, {"measurement": "Need for postoperative aspiration of lymphoceles", "setting": "[6]; control 90%", "result": 40, "unit": "%"}, {"measurement": "Mean daily drainage volume", "setting": "[6]; control 145 ml", "result": 104, "unit": "mL"}, {"measurement": "Total duration of drainage", "setting": "[6]; control 25 days", "result": 12.7, "unit": "days"}, {"measurement": "Duration of lymphatic leakage following transplantation", "setting": "[7]", "result": "shorter duration"}, {"measurement": "Incidence of lymphocele formation after drain removal", "setting": "[7]", "result": "lower incidence"}]}
{"compound": "lanreotide", "values": [{"measurement": "Affinity for the sst2 receptor, in words", "setting": "sst2", "result": "strong"}, {"measurement": "Lymphorrhea volume, patients who only underwent an axillary dissection", "setting": "[8]", "result": "significantly reduced"}]}
